Test results taken from paper PMC10762078, “Role of UPF1-LIN28A interaction during early differentiation of pluripotent stem cells” (Nature Communications, 2024).
Ends that are not written are not given here.

How the values were obtained:
[1] = test system: nonsense-mediated mRNA decay (NMD); experiment: NMD reporter mRNA by RT-qPCR in HeLa cells without LIN28A, with CPP-peptides (Supplementary Fig. 5c); type: cell-based; settings: no LIN28A, 2 μM, n = 5
Description: For CPP-conjugated peptide delivery, HeLa, 293T, and PA-1 cells were incubated with CPP-conjugated peptides or CPP-FITC at 2 μM in DMEM with 10% FBS for 12 h a day before cell harvest. hPSCs were treated with CPP-conjugated peptides at 10 μM in mTeSR Plus Medium, and the peptide-containing medium was changed every day over 10 days. The ROCK inhibitor (Tocris Bioscience, Y-27632) treated-hPSCs were dissociated into single cells using Accutase (Merck, SCR005) and differentiated into ectoderm, mesoderm, and endoderm using the STEMdiff Trilineage Differentiation Kit ([…] Technologies, 05230) following the manufacturer’s protocol. Differentiated cells treated with CPP-conjugated peptides were analysed at 0, 3, and 5 days for ectoderm and endoderm, and at 0, 3, and 4 days for mesoderm. […]
cDNA was synthesised using RevertAid Reverse Transcriptase (Thermo Fisher Scientific, EP0441) with synthesised random hexamer (Macrogen) for total RNA or stem-loop primers for miRNA. For RT-qPCR reactions, the SensiFAST SYBR No-ROX kit (Meridian Bioscience) was used according to the manufacturer’s protocol. All data analysis and visualisation were conducted using R 3.6.1 [www.r-project.org] or GraphPad Prism 10. RT primers for miRNA and RT-qPCR primer sequences are provided in Supplementary Data 6. […]

[2] = molecular target: T1, His-LIN28A (Homo sapiens, UniProt Q9H9Z2); experiment: SPR analyte-ligand binding screening of eight peptides (P1-P8); settings: SPR screening at 15 μM, 3 min association, 6 min dissociation
T1 construct: purchased LS-bio LS-G637
T1 sequence (Q9H9Z2 1-209): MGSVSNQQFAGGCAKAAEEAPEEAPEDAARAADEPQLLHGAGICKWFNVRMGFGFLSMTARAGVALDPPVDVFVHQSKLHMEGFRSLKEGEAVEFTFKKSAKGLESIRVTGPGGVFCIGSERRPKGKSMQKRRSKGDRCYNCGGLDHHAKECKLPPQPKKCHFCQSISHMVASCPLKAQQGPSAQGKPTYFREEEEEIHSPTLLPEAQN
Description: For ligand immobilisation, the nitrilotriacetic acid (NTA) surface gold sensor chip (icluebio) was activated with 5 mM NiCl2 (Xantec) at a flow rate of 30 μL/min, following equalisation with 1× HBS-T buffer. His-LIN28A (LS-bio, LS-G637) was used as a ligand protein and was applied to a sensor chip at a flow rate of 10 μL/min for 40 min after dilution in 1× HEPES-buffered saline (HBS-T) buffer at a 1/20 ratio. Approximately 1000 resonance units (RU) were bonded to the sensor chip after ligand immobilisation. RU was measured using iMSPR-ProX (icluebio). An indigenous NTA sensor chip was used as a reference channel.
Analyte-ligand binding screening was performed by tethering the ligand and reference channels in the connected mode. […] After equalisation with 1× HBS-T buffer, the sensor chip was treated with each peptide for 3 min and then for 6 min with 1× HBS-T buffer for peptide dissociation.

Sequence	effect on NMD in absence of LIN28A [1]	binding affinity vs others [2]
KKKWCRKKKSSADEKRYRALKRTAERELLMNA [CPP-P8, CPP conjugated to P8]	did not affect NMD in the absence of LIN28A	
KKKWCRKKKSSADEKRYRALKRTAERELLMNA [P8]		significantly
